{
  "source": "PubChem BioAssay AID2202555",
  "about": "(NIEHS Division of Translational Toxicology (DTT))",
  "test_system": "rat and mouse 2-year carcinogenicity bioassay, tumor evidence",
  "test": "Consolidated carcinogenicity assay summary data",
  "from_the_text": "Cancer Evaluation Criteria\nThe National Toxicology Program describes the results of individual experiments on a chemical agent and notes the strength of the evidence for conclusions regarding each study. […] Other organizations, such as the International Agency for Research on Cancer, assign a strength of evidence for conclusions based on an examination of all available evidence, including animal studies such as those conducted by the NTP, epidemiologic studies, and estimates of exposure. Thus, the actual determination of risk to humans from chemicals found to be carcinogenic in laboratory animals requires a wider analysis that extends beyond the purview of these studies.\nFive categories of evidence of carcinogenic activity are used in the Technical Report series to summarize the strength of evidence observed in each experiment: two categories for positive results (clear evidence and some evidence); one category for uncertain findings (equivocal evidence); one category for no observable effects (no evidence); and one category for experiments that cannot be evaluated because of major flaws (inadequate study). These categories of interpretative conclusions were first adopted in June 1983 and then revised on March 1986 for use in the Technical Report series to incorporate more specifically the concept of actual weight of evidence of carcinogenic activity. For each separate experiment (male rats, female rats, male mice, female mice), one of the following five categories is selected to describe the findings. These categories refer to the strength of the experimental evidence and not to potency or mechanism.\nFor studies showing multiple chemical-related neoplastic effects that if considered individually would be assigned to different levels of evidence categories, the following convention has been adopted to convey completely the study results. In a study with clear evidence of carcinogenic activity at some tissue sites, other responses that alone might be deemed some evidence are indicated as \"were also related\" to chemical exposure. In studies with clear or some evidence of carcinogenic activity, other responses that alone might be termed equivocal evidence are indicated as \"may have been\" related to chemical exposure.\nWhen a conclusion statement for a particular experiment is selected, consideration must be given to key factors that would extend the actual boundary of an individual category of evidence. Such consideration should allow for incorporation of scientific experience and current understanding of long-term carcinogenesis studies in laboratory animals, especially for those evaluations that may be on the borderline between two adjacent levels. These considerations should include:\n- adequacy of the experimental design and conduct;\n- occurrence of common versus uncommon neoplasia;\n- progression (or lack thereof) from benign to malignant neoplasia as well as from preneoplastic to neoplastic lesions;\n- some benign neoplasms have the capacity to regress but others (of the same morphologic type) progress. At present, it is impossible to identify the difference. Therefore, where progression is known to be a possibility, the most prudent course is to assume that benign neoplasms of those types have the potential to become malignant;\n- combining benign and malignant tumor incidences known or thought to represent stages of progression in the same organ or tissue;\n- latency in tumor induction;\n- multiplicity in site -specific neoplasia;\n- supporting information from proliferative lesions (hyperplasia) in the same site of neoplasia or in other experiments (same lesion in another sex or species);\n- presence or absence of dose relationships;\n- statistical significance of the observed tumor increase;\n- concurrent control tumor incidence as well as the historical control rate and variability for a specific neoplasm;\n- survival-adjusted analyses and false positive or false negative concerns;\n- structure-activity correlations; and\n[…]",
  "note": "Inconclusive results are not listed. Active and inactive are the calls of the source. No rule for the calls is given here.",
  "data": [
    {"smiles": "Nc1ccc(N=Nc2ccc(-c3ccc(N=Nc4c(S(=O)(=O)O)cc5cc(S(=O)(=O)O)c(N=Nc6ccccc6)c(O)c5c4N)cc3)cc2)c(N)c1", "values": [
      {"measurement": "carcinogen call", "setting": "Route (rodents): Dosed feed", "result": "active; clear evidence"}
    ]},
    {"smiles": "C[C@]12CC[C@@H]3c4ccc(OC(=O)Cc5ccc(N(CCCl)CCCl)cc5)cc4CC[C@H]3[C@@H]1CC[C@@H]2OC(=O)Cc1ccc(N(CCCl)CCCl)cc1", "values": [
      {"measurement": "carcinogen call", "setting": "Route (rodents): Gavage", "result": "active; no evidence"}
    ]},
    {"smiles": "[Co]", "values": [
      {"measurement": "carcinogen call", "setting": "Route (rodents): Inhalation", "result": "active; clear evidence"}
    ]},
    {"smiles": "O=C1OC(c2ccc(O)cc2)(c2ccc(O)cc2)c2ccccc21", "values": [
      {"measurement": "carcinogen call", "setting": "Route (rodents): Dosed feed", "result": "active; clear evidence"}
    ]},
    {"smiles": "Nc1ccc([N+](=O)[O-])cc1O", "values": [
      {"measurement": "carcinogen call", "setting": "Route (rodents): Gavage", "result": "active; some evidence"}
    ]},
    {"smiles": "CC(C)=CCl", "values": [
      {"measurement": "carcinogen call", "setting": "Route (rodents): Gavage", "result": "active; clear evidence"}
    ]},
    {"smiles": "CC(C)c1ccccc1", "values": [
      {"measurement": "carcinogen call", "setting": "Route (rodents): Inhalation", "result": "active; clear evidence"}
    ]},
    {"smiles": "O=Cc1ccccc1", "values": [
      {"measurement": "carcinogen call", "setting": "Route (rodents): Gavage", "result": "active; no evidence"}
    ]},
    {"smiles": "CC(O)c1ccccc1", "note": "(stereo unspecified)", "values": [
      {"measurement": "carcinogen call", "setting": "Route (rodents): Gavage", "result": "active; some evidence"}
    ]},
    {"smiles": "CN(C)c1ccc(C(=O)c2ccc(N(C)C)cc2)cc1", "values": [
      {"measurement": "carcinogen call", "setting": "Route (rodents): Dosed feed", "result": "active; clear evidence"}
    ]},
    {"smiles": "ClC1=C(Cl)C2(Cl)C3C(Cl)C(Cl)CC3C1(Cl)C2(Cl)Cl", "note": "(stereo unspecified)", "values": [
      {"measurement": "carcinogen call", "setting": "Route (rodents): Dosed feed", "result": "active; no evidence"}
    ]},
    {"smiles": "OCc1ccco1", "values": [
      {"measurement": "carcinogen call", "setting": "Route (rodents): Inhalation", "result": "active; some evidence"}
    ]},
    {"smiles": "ClC(Br)Br", "values": [
      {"measurement": "carcinogen call", "setting": "Route (rodents): Gavage", "result": "active; no evidence"}
    ]},
    {"smiles": "O=C(O)c1ccc([N+](=O)[O-])cc1", "values": [
      {"measurement": "carcinogen call", "setting": "Route (rodents): Dosed feed", "result": "active; no evidence"}
    ]},
    {"smiles": "Nc1ccc(Cl)cc1N", "values": [
      {"measurement": "carcinogen call", "setting": "Route (rodents): Dosed feed", "result": "active; clear evidence"}
    ]},
    {"smiles": "CC(=O)Nc1ccc(N=Nc2cc(C)ccc2O)cc1", "values": [
      {"measurement": "carcinogen call", "setting": "Route (rodents): Dosed feed", "result": "active; clear evidence"}
    ]},
    {"smiles": "COc1cc(-c2ccc(N=C=O)c(OC)c2)ccc1N=C=O", "values": [
      {"measurement": "carcinogen call", "setting": "Route (rodents): Dosed feed", "result": "active; clear evidence"}
    ]},
    {"smiles": "Nc1ccc(O)c(N)c1", "values": [
      {"measurement": "carcinogen call", "setting": "Route (rodents): Gavage", "result": "active; no evidence"}
    ]},
    {"smiles": "c1ccoc1", "values": [
      {"measurement": "carcinogen call", "setting": "Route (rodents): Gavage", "result": "active; clear evidence"}
    ]},
    {"smiles": "Oc1ccc(O)cc1", "values": [
      {"measurement": "carcinogen call", "setting": "Route (rodents): Gavage", "result": "active; some evidence"}
    ]},
    {"smiles": "CCNC(=S)NCC", "values": [
      {"measurement": "carcinogen call", "setting": "Route (rodents): Dosed feed", "result": "active; clear evidence"}
    ]},
    {"smiles": "OC(O)C(Cl)(Cl)Cl", "values": [
      {"measurement": "carcinogen call", "setting": "Route (rodents): Gavage", "result": "active"}
    ]},
    {"smiles": "CC1=CC(=O)CC(C)(C)C1", "values": [
      {"measurement": "carcinogen call", "setting": "Route (rodents): Gavage", "result": "active; some evidence"}
    ]},
    {"smiles": "C[C@H]1CCCC(=O)CCC/C=C/c2cc(O)cc(O)c2C(=O)O1", "values": [
      {"measurement": "carcinogen call", "setting": "Route (rodents): Dosed feed", "result": "active; no evidence"}
    ]},
    {"smiles": "CCOc1ccc(NC(C)=O)cc1N", "values": [
      {"measurement": "carcinogen call", "setting": "Route (rodents): Dosed feed", "result": "active; no evidence"}
    ]},
    {"smiles": "O=C1CN(N=Cc2ccc([N+](=O)[O-])o2)C(=O)N1", "values": [
      {"measurement": "carcinogen call", "setting": "Route (rodents): Dosed feed", "result": "active; some evidence"}
    ]},
    {"smiles": "O=C1C2CC=CCC2C(=O)N1SC(Cl)(Cl)Cl", "note": "(stereo unspecified)", "values": [
      {"measurement": "carcinogen call", "setting": "Route (rodents): Dosed feed", "result": "active; no evidence"}
    ]},
    {"smiles": "Clc1ccc(-c2cc(Cl)c(Cl)c(Cl)c2)cc1Cl", "values": [
      {"measurement": "carcinogen call", "setting": "Route (rodents): Gavage", "result": "active"}
    ]},
    {"smiles": "CNC(=S)N(C)C", "values": [
      {"measurement": "carcinogen call", "setting": "Route (rodents): Dosed feed", "result": "active; no evidence"}
    ]},
    {"smiles": "ClCC(Cl)CCl", "values": [
      {"measurement": "carcinogen call", "setting": "Route (rodents): Gavage", "result": "active; clear evidence"}
    ]},
    {"smiles": "Nc1ccccc1", "values": [
      {"measurement": "carcinogen call", "setting": "Route (rodents): Dosed feed", "result": "active; clear evidence"}
    ]},
    {"smiles": "c1ccc2c(c1)CCCC2", "values": [
      {"measurement": "carcinogen call", "setting": "Route (rodents): Inhalation", "result": "active; some evidence"}
    ]},
    {"smiles": "S=[Se]", "values": [
      {"measurement": "carcinogen call", "setting": "Route (rodents): Gavage, Second Route: Topical", "result": "active; clear evidence"}
    ]},
    {"smiles": "CCOC(N)=O", "values": [
      {"measurement": "carcinogen call", "setting": "Route (rodents): Dosed water", "result": "active"}
    ]},
    {"smiles": "C=C(C)C", "values": [
      {"measurement": "carcinogen call", "setting": "Route (rodents): Inhalation", "result": "active; some evidence"}
    ]},
    {"smiles": "OC(c1ccc(Cl)cc1)(c1ccc(Cl)cc1)C(Cl)(Cl)Cl", "values": [
      {"measurement": "carcinogen call", "setting": "Route (rodents): Dosed feed", "result": "active; no evidence"}
    ]},
    {"smiles": "C=CC(=O)OCC", "values": [
      {"measurement": "carcinogen call", "setting": "Route (rodents): Gavage", "result": "active; clear evidence"}
    ]},
    {"smiles": "Nc1ccccc1-c1ccccc1", "values": [
      {"measurement": "carcinogen call", "setting": "Route (rodents): Dosed feed", "result": "active; no evidence"}
    ]},
    {"smiles": "C=CC(=C)CCC=C(C)C", "values": [
      {"measurement": "carcinogen call", "setting": "Route (rodents): Gavage", "result": "active; clear evidence"}
    ]},
    {"smiles": "Cc1ccc(Cl)cc1N", "values": [
      {"measurement": "carcinogen call", "setting": "Route (rodents): Dosed feed", "result": "active; no evidence"}
    ]},
    {"smiles": "O=C1c2ccccc2-c2ccc3c4c(ccc1c24)-c1ccccc1C3=O", "values": [
      {"measurement": "carcinogen call", "setting": "Route (rodents): Dosed feed", "result": "active; no evidence"}
    ]},
    {"smiles": "C=C(Cl)CSC(=S)N(CC)CC", "values": [
      {"measurement": "carcinogen call", "setting": "Route (rodents): Dosed feed", "result": "active; clear evidence"}
    ]},
    {"smiles": "CCn1cc(C(=O)O)c(=O)c2ccc(C)nc21", "values": [
      {"measurement": "carcinogen call", "setting": "Route (rodents): Dosed feed", "result": "active; clear evidence"}
    ]},
    {"smiles": "ClCCl", "values": [
      {"measurement": "carcinogen call", "setting": "Route (rodents): Inhalation", "result": "active; some evidence"}
    ]},
    {"smiles": "OCCNCCO", "values": [
      {"measurement": "carcinogen call", "setting": "Route (rodents): Topical", "result": "active; no evidence"}
    ]},
    {"smiles": "Nc1ncc([N+](=O)[O-])s1", "values": [
      {"measurement": "carcinogen call", "setting": "Route (rodents): Dosed feed", "result": "active; clear evidence"}
    ]}
  ]
}
